Here are results for 13 compounds from paper PMC7179419 (Molecules, 2020).

Each structure is given as a SMILES string. Like-named read-outs stand apart in the source and are kept apart here.

Data set [1] concerns normal murine embryonic fibroblast cell line (BALB/3T3). Description: Antiproliferative assay in vitro (SRB, 72 h), BALB/3T3 normal cells. It counts as cell-based. The following applies: normal cell line BALB/3T3, 72 h, mean ± SD. On the procedure: (§1) For a more accurate evaluation of cytotoxic activity, the effect on normal murine embryonic fibroblast cell line (BALB/3T3) was also tested according to the previously published procedure. Detailed information concerning antiproliferation assay can be found in Supplementary Materials. […]
(§2) The antiproliferative activity
(§3) Four human cancer cell lines and one murine normal cell line were used to evaluate […]
(§4) (A549), human breast adenocarcinoma (MCF-7), human colon adenocarcinoma cell lines sensitive and resistant to doxorubicin (LoVo), respectively, and normal murine embryonic fibroblast cell line (BALB/3T3). The BALB/3T3 cell line was purchased from the American Type Culture Collection (ATCC, Manassas, VA, USA), A549 and MCF-7 cell lines—from European Collection of Authenticated Cell Cultures (Salisbury, UK), LoVo cell line was purchased from the ATCC (ATCC, Manassas, VA, USA). All the cell lines are maintained in the Institute of Immunology and Experimental Therapy (IIET), Wroclaw, Poland. Human lung adenocarcinoma cell line was cultured in mixture of OptiMEM and RPMI 1640 (1:1) medium (IIET, Wroclaw, Poland), supplemented with 5% fetal bovine serum (GE Healthcare, Logan, UT, USA) and 2 mM L-glutamine (Sigma-Aldrich, Merck KGaA, Saint Louis, MO, USA). Human breast adenocarcinoma cell line was cultured in mixture of Eagle medium (IIET, Wroclaw, Poland), supplemented with 10% fetal bovine serum, 2 mM L-glutamine, 8 μg/mL insulin and 1% amino-acids (Sigma-Aldrich, Merck KGaA, Saint Louis, MO, USA).
(§5) Human colon adenocarcinoma cell lines were cultured in mixture of OptiMEM and RPMI 1640 (1:1) medium (IIET, Wroclaw, Poland), supplemented with 5% fetal bovine serum (GE Healthcare, Logan UT, USA), 2 mM L-glutamine, 1 mM sodium pyruvate (Sigma-Aldrich, Merck KGaA, Saint Louis, MO, USA). Murine embryonic fibroblast cells were cultured in […]
(§6) Dulbecco medium (Life Technologies Limited, Paisley, UK), supplemented with 10% fetal bovine serum (GE Healthcare, Logan, UT, USA) and 2 mM glutamine (Sigma-Aldrich, Merck KGaA, Saint Louis, MO, USA). All culture media contained antibiotics: 100 U/mL penicillin and 100 μg/mL streptomycin (Polfa-Tarchomin, Warsaw, Poland). All cell lines were cultured during entire experiment in humid atmosphere at 37 °C and 5% CO2. Cells were tested for mycoplasma contamination by mycoplasma detection kit for conventional […]
(§7) The procedure is repeated every year or in the case of less frequently used lines:
(§8) The Antiproliferative Assays In Vitro
(§9) Twenty-four hours before adding the tested compounds, all cell lines were seeded in 384-well plates (Sarstedt, Nümbrecht, Germany) in appropriate media with 1x103 or 1,5x103

Data set [2] concerns human lung adenocarcinoma (A549). Put plainly: cells. It counts as cell-based. The following applies: for IC50: A549, 72 h, read-out: A549 IC50; for SI (A549): SI = IC50 BALB/3T3 / IC50 A549. As to the method:
as §1, §2, §3, §4, §5, §6, §7, §8, §9

In data set [3] the test system is human breast adenocarcinoma (MCF-7). Description: cells. It counts as cell-based. The following applies: for IC50: read-out: MCF-7 IC50; for SI (MCF-7): SI = IC50 BALB/3T3 / IC50 MCF-7. As to the method:
as §1, §2, §3, §4, §5, §6, §7, §8, §9

The subject of data set [4] is human colon adenocarcinoma cell line (LoVo). Description: cells. It counts as cell-based. The following applies: for IC50: LoVo, 72 h, read-out: LoVo IC50; for SI (LoVo): SI = IC50 BALB/3T3 / IC50 LoVo. As to the method:
as §1, §2, §3, §4, §5, §6, §7, §8, §9

A further data set has as its system tubulin. Also noted: method as in PMID 2708333. Conditions: lower affinity relative to colchicine; cited from earlier work.

Consider `COc1cc2c(c(OC(C)=O)c1OC)-c1ccc(SC)c(=O)cc1C(NC(C)=O)CC2` (stereo not drawn) [Compound 4a, Acetyl Ester of 1-demethylthiocolchicine], for which the IC50 in data set [1] (Mus musculus) was 650 ± 120 nM; in data set [2] (Homo sapiens) it was 480 ± 150 nM; in data set [3] (Homo sapiens, MCF7, 72 h), 100 ± 20 nM; in data set [4] (Homo sapiens) it was 110 ± 20 nM. The “SI (A549)” value in data set [2] is 1.36.

Take `COc1cccc2c1C(=O)c1c(O)c3c(c(O)c1C2=O)C[C@@](O)(C(=O)CO)C[C@@H]3O[C@H]1C[C@H](N)[C@H](O)[C@H](C)O1` [doxorubicin, reference compound]: the IC50 in data set [1] (Mus musculus) is 40 ± 30 nM; in data set [2] (Homo sapiens, SRB, mean ± SD), 160 ± 30 nM; in data set [3] (Homo sapiens, MCF7, MCF-7, 72 h, SRB, mean ± SD), 150 ± 50 nM; in data set [4] (Homo sapiens, SRB, mean ± SD) it was 80 ± 30 nM. For the same compound, the “SI (A549)” value in data set [2] was 0.25. Moreover, the “SI (MCF-7)” value in data set [3] is 0.26. Besides, in data set [4], the “SI (LoVo)” value is reported as 0.49.

As for `COc1cc2c(c(OC)c1OC)-c1ccc(OC(C)=O)c(=O)cc1[C@@H](NC(C)=O)CC2` [Compound 2a, Acetyl Ester of Colchiceine], the melting point was 120 to 122 °C.

On to `COc1cc2c(c(OC)c1OC)-c1ccc(=O)c(O)cc1[C@@H](NC(C)=O)CC2` [Compound 1, 10-demethylcolchicine], for which the IC50 in data set [1] (Mus musculus) came out at 10200 ± 960 nM; in data set [2] (Homo sapiens), 13000 ± 1790 nM; in data set [3] (Homo sapiens, MCF7, 72 h) it was 11200 ± 2520 nM; in data set [4] (Homo sapiens), 6000 ± 1880 nM. For the same compound, the “SI (A549)” value in data set [2] turned out to be 0.79. The “SI (MCF-7)” value in data set [3] turned out to be 0.91. The “SI (LoVo)” value in data set [4] is recorded as 1.71.

With `N.N.[Cl][Pt][Cl]` [cisplatin, reference compound], the IC50 is 2910 ± 1830 nM in data set [1]; 3600 ± 250 nM in data set [2] (SRB, mean ± SD); 3050 ± 670 nM in data set [3] (MCF-7, 72 h, SRB, mean ± SD); 3800 ± 280 nM in data set [4] (SRB, mean ± SD). In addition, the “SI (A549)” value in data set [2] is 0.81. Moreover, in data set [3], the “SI (MCF-7)” value is reported as 0.95. Moreover, the “SI (LoVo)” value in data set [4] worked out at 0.77.

Take `CCC(=O)Oc1c(OC)c(OC)cc2c1-c1ccc(SC)c(=O)cc1[C@@H](NC(C)=O)CC2` [Compound 4b, Propionyl Ester of 1-demethylthiocolchicine]: the IC50 stood at 750 ± 100 nM in data set [1] (Mus musculus); 970 ± 40 nM in data set [2] (Homo sapiens); 960 ± 130 nM in data set [3] (Homo sapiens, MCF7, 72 h).

Take `COc1cc2c(c(OC)c1OC)-c1ccc(OC(=O)C(C)C)c(=O)cc1[C@@H](NC(C)=O)CC2` [Compound 2c, Isobutyryl Ester of Colchiceine]: the melting point was 123 to 125 °C.

Consider `COc1cc2c(c(OC)c1OC)-c1ccc(=O)c(OC)cc1[C@@H](NC(C)=O)CC2` [isocolchicine], for which, in the data set with tubulin, the “affinity for binding to tubulin, times lower than colchicine” value is 500 times.

Regarding `COC(=O)Oc1c(OC)c(OC)cc2c1-c1ccc(SC)c(=O)cc1C(NC(C)=O)CC2` (stereo not drawn) [Compound 4e, Methyl Carbonate of 1-demethylthiocolchicine], the IC50 in data set [1] (Mus musculus) came to 780 ± 60 nM; in data set [2] (Homo sapiens), 900 ± 90 nM; in data set [3] (Homo sapiens, MCF7, 72 h) it was 1020 ± 100 nM; in data set [4] (Homo sapiens), 430 ± 190 nM. In addition, the “SI (A549)” value in data set [2] worked out at 0.87. The “SI (MCF-7)” value in data set [3] was 0.77. In data set [4], the “SI (LoVo)” value came to 1.84.

Turning to `COc1cc2c(c(OC(=O)c3ccccc3)c1OC)-c1ccc(SC)c(=O)cc1[C@@H](NC(C)=O)CC2` [Compound 4d, Benzyl Ester of 1-demethylthiocolchicine], the concentration for half-maximal inhibition (IC50) in data set [1] (Mus musculus) worked out at 450 ± 230 nM; in data set [2] (Homo sapiens), 600 ± 310 nM; in data set [3] (Homo sapiens, MCF7, 72 h) it was 780 ± 220 nM; in data set [4] (Homo sapiens), 100 ± 80 nM. Besides, the “SI (A549)” value in data set [2] is given as 0.75. Further, the “SI (MCF-7)” value in data set [3] worked out at 0.58. For the same compound, the “SI (LoVo)” value in data set [4] is reported as 4.71.

In the case of `CCOC(=O)Oc1c(OC)c(OC)cc2c1-c1ccc(SC)c(=O)cc1[C@@H](NC(C)=O)CC2` [Compound 4f, Ethyl Carbonate of 1-demethylthiocolchicine], the half-inhibitory concentration (IC50) in data set [1] (Mus musculus) was 1030 ± 200 nM; in data set [2] (Homo sapiens) it was 960 ± 130 nM; in data set [3] (Homo sapiens, MCF7, 72 h) it was 950 ± 200 nM; in data set [4] (Homo sapiens) it was 790 ± 160 nM. In data set [2], the “SI (A549)” value is recorded as 1.08. The “SI (MCF-7)” value in data set [3] is given as 1.09. Besides, the “SI (LoVo)” value in data set [4] amounted to 1.31.

Regarding `COc1cc2c(c(OC(=O)C(C)C)c1OC)-c1ccc(SC)c(=O)cc1[C@@H](NC(C)=O)CC2` [Compound 4c, Isobutyryl Ester of 1-demethylthiocolchicine], the 50% inhibitory concentration (IC50) in data set [1] (Mus musculus) was 710 ± 30 nM; in data set [2] (Homo sapiens), 890 ± 70 nM; in data set [3] (Homo sapiens, MCF7, 72 h) it was 860 ± 100 nM; in data set [4] (Homo sapiens) it was 560 ± 60 nM. Further, in data set [2], the “SI (A549)” value is recorded as 0.80. In addition, the “SI (MCF-7)” value in data set [3] came to 0.83. In data set [4], the “SI (LoVo)” value came out at 1.27.

Consider `COc1cc2c(c(O)c1OC)-c1ccc(SC)c(=O)cc1C(NC(C)=O)CC2` (stereo not drawn) [Compound 3, 1-demethylthiocolchicine], for which the IC50 in data set [1] (Mus musculus) was 610 ± 140 nM; in data set [2] (Homo sapiens), 820 ± 20 nM; in data set [3] (Homo sapiens, MCF7, 72 h), 120 ± 50 nM; in data set [4] (Homo sapiens), 110 ± 30 nM. Besides, in data set [2], the “SI (A549)” value is reported as 0.74. Also, the “SI (MCF-7)” value in data set [3] is on record as 4.92.

By IC50 is commonly meant the concentration needed to halve the response being measured. What is called melting point is the temperature of the solid-liquid transition.
